# The NIST ThermoML archive (doi:10.1016/j.jct.2015.10.017)
# ± gives the expanded uncertainty stated by the source.
# Test: mn = molality of the nth substance listed, in mol/kg
# Details: 100 kPa, Liquid, Falling or rolling sphere viscometry
smiles,measurement,setting,value
O=P([O-])([O-])O.[K+].[K+] [dipotassium hydrogen phosphate] + O,viscosity,"288.15 K, m1 = 0.01682",1.05 ± 0.21 mPa·s
same,viscosity,"288.15 K, m1 = 0.03476",1.058 ± 0.21 mPa·s
same,viscosity,"288.15 K, m1 = 0.05442",1.066 ± 0.21 mPa·s
same,viscosity,"288.15 K, m1 = 0.06215",1.069 ± 0.21 mPa·s
same,viscosity,"288.15 K, m1 = 0.08596",1.079 ± 0.22 mPa·s
same,viscosity,"288.15 K, m1 = 0.1633",1.112 ± 0.22 mPa·s
same,viscosity,"288.15 K, m1 = 0.2499",1.149 ± 0.23 mPa·s
same,viscosity,"288.15 K, m1 = 0.3088",1.174 ± 0.23 mPa·s
same,viscosity,"288.15 K, m1 = 0.4795",1.246 ± 0.25 mPa·s
same,viscosity,"288.15 K, m1 = 0.628",1.309 ± 0.26 mPa·s
same,viscosity,"288.15 K, m1 = 0.7511",1.361 ± 0.27 mPa·s
same,viscosity,"288.15 K, m1 = 0.8468",1.401 ± 0.28 mPa·s
same,viscosity,"288.15 K, m1 = 0.9565",1.448 ± 0.29 mPa·s
same,viscosity,"293.15 K, m1 = 0.01682",0.9382 ± 0.19 mPa·s
same,viscosity,"293.15 K, m1 = 0.03476",0.9456 ± 0.19 mPa·s
same,viscosity,"293.15 K, m1 = 0.05442",0.9538 ± 0.19 mPa·s
same,viscosity,"293.15 K, m1 = 0.06215",0.957 ± 0.19 mPa·s
same,viscosity,"293.15 K, m1 = 0.08596",0.9669 ± 0.19 mPa·s
same,viscosity,"293.15 K, m1 = 0.1633",0.9989 ± 0.2 mPa·s
same,viscosity,"293.15 K, m1 = 0.2499",1.035 ± 0.21 mPa·s
same,viscosity,"293.15 K, m1 = 0.3088",1.059 ± 0.21 mPa·s
same,viscosity,"293.15 K, m1 = 0.4795",1.13 ± 0.23 mPa·s
same,viscosity,"293.15 K, m1 = 0.628",1.192 ± 0.24 mPa·s
same,viscosity,"293.15 K, m1 = 0.7511",1.243 ± 0.25 mPa·s
same,viscosity,"293.15 K, m1 = 0.8468",1.283 ± 0.26 mPa·s
same,viscosity,"293.15 K, m1 = 0.9565",1.328 ± 0.27 mPa·s
same,viscosity,"298.15 K, m1 = 0.01682",0.8385 ± 0.17 mPa·s
same,viscosity,"298.15 K, m1 = 0.03476",0.8455 ± 0.17 mPa·s
same,viscosity,"298.15 K, m1 = 0.05442",0.8532 ± 0.17 mPa·s
same,viscosity,"298.15 K, m1 = 0.06215",0.8562 ± 0.17 mPa·s
same,viscosity,"298.15 K, m1 = 0.08596",0.8655 ± 0.17 mPa·s
same,viscosity,"298.15 K, m1 = 0.1633",0.8957 ± 0.18 mPa·s
same,viscosity,"298.15 K, m1 = 0.2499",0.9296 ± 0.19 mPa·s
same,viscosity,"298.15 K, m1 = 0.3088",0.9526 ± 0.19 mPa·s
same,viscosity,"298.15 K, m1 = 0.4795",1.019 ± 0.2 mPa·s
same,viscosity,"298.15 K, m1 = 0.628",1.077 ± 0.22 mPa·s
same,viscosity,"298.15 K, m1 = 0.7511",1.126 ± 0.23 mPa·s
same,viscosity,"298.15 K, m1 = 0.8468",1.163 ± 0.23 mPa·s
same,viscosity,"298.15 K, m1 = 0.9565",1.206 ± 0.24 mPa·s
same,viscosity,"303.15 K, m1 = 0.01682",0.804 ± 0.16 mPa·s
same,viscosity,"303.15 K, m1 = 0.03476",0.8103 ± 0.16 mPa·s
same,viscosity,"303.15 K, m1 = 0.05442",0.8173 ± 0.16 mPa·s
same,viscosity,"303.15 K, m1 = 0.06215",0.82 ± 0.16 mPa·s
same,viscosity,"303.15 K, m1 = 0.08596",0.8284 ± 0.17 mPa·s
same,viscosity,"303.15 K, m1 = 0.1633",0.8556 ± 0.17 mPa·s
same,viscosity,"303.15 K, m1 = 0.2499",0.8861 ± 0.18 mPa·s
same,viscosity,"303.15 K, m1 = 0.3088",0.9068 ± 0.18 mPa·s
same,viscosity,"303.15 K, m1 = 0.4795",0.9669 ± 0.19 mPa·s
same,viscosity,"303.15 K, m1 = 0.628",1.019 ± 0.2 mPa·s
same,viscosity,"303.15 K, m1 = 0.7511",1.062 ± 0.21 mPa·s
same,viscosity,"303.15 K, m1 = 0.8468",1.096 ± 0.22 mPa·s
same,viscosity,"303.15 K, m1 = 0.9565",1.135 ± 0.23 mPa·s
same,viscosity,"308.15 K, m1 = 0.01682",0.7261 ± 0.15 mPa·s
same,viscosity,"308.15 K, m1 = 0.03476",0.7324 ± 0.15 mPa·s
same,viscosity,"308.15 K, m1 = 0.05442",0.7394 ± 0.15 mPa·s
same,viscosity,"308.15 K, m1 = 0.06215",0.7421 ± 0.15 mPa·s
same,viscosity,"308.15 K, m1 = 0.08596",0.7505 ± 0.15 mPa·s
same,viscosity,"308.15 K, m1 = 0.1633",0.7777 ± 0.16 mPa·s
same,viscosity,"308.15 K, m1 = 0.2499",0.8082 ± 0.16 mPa·s
same,viscosity,"308.15 K, m1 = 0.3088",0.8289 ± 0.17 mPa·s
same,viscosity,"308.15 K, m1 = 0.4795",0.889 ± 0.18 mPa·s
same,viscosity,"308.15 K, m1 = 0.628",0.9412 ± 0.19 mPa·s
same,viscosity,"308.15 K, m1 = 0.7511",0.9846 ± 0.2 mPa·s
same,viscosity,"308.15 K, m1 = 0.8468",1.018 ± 0.2 mPa·s
same,viscosity,"308.15 K, m1 = 0.9565",1.057 ± 0.21 mPa·s
O=P([O-])([O-])O.[Na+].[Na+] [disodium hydrogen phosphate] + O,viscosity,"288.15 K, m1 = 0.01669",1.056 ± 0.21 mPa·s
same,viscosity,"288.15 K, m1 = 0.03487",1.069 ± 0.21 mPa·s
same,viscosity,"288.15 K, m1 = 0.05412",1.084 ± 0.22 mPa·s
same,viscosity,"288.15 K, m1 = 0.06194",1.089 ± 0.22 mPa·s
same,viscosity,"288.15 K, m1 = 0.08565",1.107 ± 0.22 mPa·s
same,viscosity,"288.15 K, m1 = 0.162",1.164 ± 0.23 mPa·s
same,viscosity,"288.15 K, m1 = 0.255",1.234 ± 0.25 mPa·s
same,viscosity,"288.15 K, m1 = 0.3161",1.28 ± 0.26 mPa·s
same,viscosity,"288.15 K, m1 = 0.4813",1.404 ± 0.28 mPa·s
same,viscosity,"288.15 K, m1 = 0.6261",1.513 ± 0.3 mPa·s
same,viscosity,"288.15 K, m1 = 0.7501",1.606 ± 0.32 mPa·s
same,viscosity,"288.15 K, m1 = 0.8501",1.681 ± 0.34 mPa·s
same,viscosity,"288.15 K, m1 = 0.959",1.762 ± 0.35 mPa·s
same,viscosity,"293.15 K, m1 = 0.01669",0.9429 ± 0.19 mPa·s
same,viscosity,"293.15 K, m1 = 0.03487",0.9556 ± 0.19 mPa·s
same,viscosity,"293.15 K, m1 = 0.05412",0.969 ± 0.19 mPa·s
same,viscosity,"293.15 K, m1 = 0.06194",0.9745 ± 0.2 mPa·s
same,viscosity,"293.15 K, m1 = 0.08565",0.9911 ± 0.2 mPa·s
same,viscosity,"293.15 K, m1 = 0.162",1.044 ± 0.21 mPa·s
same,viscosity,"293.15 K, m1 = 0.255",1.109 ± 0.22 mPa·s
same,viscosity,"293.15 K, m1 = 0.3161",1.152 ± 0.23 mPa·s
same,viscosity,"293.15 K, m1 = 0.4813",1.268 ± 0.25 mPa·s
same,viscosity,"293.15 K, m1 = 0.6261",1.369 ± 0.27 mPa·s
same,viscosity,"293.15 K, m1 = 0.7501",1.456 ± 0.29 mPa·s
same,viscosity,"293.15 K, m1 = 0.8501",1.525 ± 0.31 mPa·s
same,viscosity,"293.15 K, m1 = 0.959",1.602 ± 0.32 mPa·s
same,viscosity,"298.15 K, m1 = 0.01669",0.8421 ± 0.17 mPa·s
same,viscosity,"298.15 K, m1 = 0.03487",0.8532 ± 0.17 mPa·s
same,viscosity,"298.15 K, m1 = 0.05412",0.865 ± 0.17 mPa·s
same,viscosity,"298.15 K, m1 = 0.06194",0.8698 ± 0.17 mPa·s
same,viscosity,"298.15 K, m1 = 0.08565",0.8843 ± 0.18 mPa·s
same,viscosity,"298.15 K, m1 = 0.162",0.931 ± 0.19 mPa·s
same,viscosity,"298.15 K, m1 = 0.255",0.9879 ± 0.2 mPa·s
same,viscosity,"298.15 K, m1 = 0.3161",1.025 ± 0.21 mPa·s
same,viscosity,"298.15 K, m1 = 0.4813",1.126 ± 0.23 mPa·s
same,viscosity,"298.15 K, m1 = 0.6261",1.215 ± 0.24 mPa·s
same,viscosity,"298.15 K, m1 = 0.7501",1.291 ± 0.26 mPa·s
same,viscosity,"298.15 K, m1 = 0.8501",1.352 ± 0.27 mPa·s
same,viscosity,"298.15 K, m1 = 0.959",1.419 ± 0.28 mPa·s
same,viscosity,"303.15 K, m1 = 0.01669",0.806 ± 0.16 mPa·s
same,viscosity,"303.15 K, m1 = 0.03487",0.8146 ± 0.16 mPa·s
same,viscosity,"303.15 K, m1 = 0.05412",0.8238 ± 0.16 mPa·s
same,viscosity,"303.15 K, m1 = 0.06194",0.8275 ± 0.17 mPa·s
same,viscosity,"303.15 K, m1 = 0.08565",0.8387 ± 0.17 mPa·s
same,viscosity,"303.15 K, m1 = 0.162",0.8749 ± 0.18 mPa·s
same,viscosity,"303.15 K, m1 = 0.255",0.9189 ± 0.18 mPa·s
same,viscosity,"303.15 K, m1 = 0.3161",0.9479 ± 0.19 mPa·s
same,viscosity,"303.15 K, m1 = 0.4813",1.026 ± 0.21 mPa·s
same,viscosity,"303.15 K, m1 = 0.6261",1.095 ± 0.22 mPa·s
same,viscosity,"303.15 K, m1 = 0.7501",1.154 ± 0.23 mPa·s
same,viscosity,"303.15 K, m1 = 0.8501",1.201 ± 0.24 mPa·s
same,viscosity,"303.15 K, m1 = 0.959",1.253 ± 0.25 mPa·s
same,viscosity,"308.15 K, m1 = 0.01669",0.7281 ± 0.15 mPa·s
same,viscosity,"308.15 K, m1 = 0.03487",0.7367 ± 0.15 mPa·s
same,viscosity,"308.15 K, m1 = 0.05412",0.7459 ± 0.15 mPa·s
same,viscosity,"308.15 K, m1 = 0.06194",0.7496 ± 0.15 mPa·s
same,viscosity,"308.15 K, m1 = 0.08565",0.7608 ± 0.15 mPa·s
same,viscosity,"308.15 K, m1 = 0.162",0.797 ± 0.16 mPa·s
same,viscosity,"308.15 K, m1 = 0.255",0.841 ± 0.17 mPa·s
same,viscosity,"308.15 K, m1 = 0.3161",0.87 ± 0.17 mPa·s
same,viscosity,"308.15 K, m1 = 0.4813",0.9483 ± 0.19 mPa·s
same,viscosity,"308.15 K, m1 = 0.6261",1.017 ± 0.2 mPa·s
same,viscosity,"308.15 K, m1 = 0.7501",1.076 ± 0.22 mPa·s
same,viscosity,"308.15 K, m1 = 0.8501",1.123 ± 0.23 mPa·s
same,viscosity,"308.15 K, m1 = 0.959",1.175 ± 0.24 mPa·s
